Measurements taken from publication PMC7728372, “Synthesis and Biological Evaluation of Amino Chalcone Derivatives as Antiproliferative Agents” (Molecules, 2020).
Like-named read-outs stand apart in the source and are kept apart here.

Columns and labels:
[1] = system: K562 cell line; parameters: method as in PMID 19837593; conditions: cited from earlier work
[2] = system: HepG2 cells; parameters: method as in PMID 23471882; conditions: cited from earlier work
[3] = system: MCF-7 cells; conditions: cited from earlier work
[4] = system: hCA IX; parameters: method as in PMID 29852328; conditions: cited from earlier work
[5] = system: HCT-116 cells; assay: MTT antiproliferative assay, HCT-116 cells; format: cell-based, human
Experimental: (§1) Cell lines used were cultured in humidified incubator at 37 °C and 5% CO2. The RPMI-1640 medium was supplemented with 10% fetal bovine serum, penicillin (100 U/mL) and streptomycin (0.1 mg/mL).
(§2) Cell lines were seeded into […] and incubated for 24 h. Then cells were treated with different concentrations of compounds. And after another 48 h, MTT reagent (20 μL per well) was added and then incubated at 37 °C for 4 h. Formazan was then dissolved with DMSO. Absorbencies of formazan solution were measured at […]. The IC50 values of tested compounds were calculated by SPSS version 17.0.

[6] = system: MCF-7 cells; assay: MTT antiproliferative assay, MCF-7 cells; format: cell-based, human
Experimental: as §1, §2

[7] = system: GES-1 cells; assay: MTT antiproliferative assay, non-cancer GES-1 cells; format: cell-based; conditions: for IC50: non-cancer cell line, exposure for 48 h; for Fold Selectivity A: A = IC50 (GES-1)/IC50 (MGC-803)
Experimental: as §1, §2

[8] = system: PC-3 cells; parameters: method as in PMID 27777009; conditions: cited from earlier work
[9] = molecular target: VEGFR-2/KDR kinase; parameters: method as in PMID 27777009; conditions: cited from earlier work
[10] = system: MGC-803 cells; parameters: method as in PMID 27423479, PMID 30763884, PMID 27213317; conditions: earlier work of the group; cited from earlier work
[11] = system: SKVO3 cells; parameters: method as in PMID 27213819; conditions: cited from earlier work
[12] = system: MGC-803 cells; assay: MTT antiproliferative assay, MGC-803 cells; format: cell-based, human; conditions: exposure for 48 h
Experimental: as §1, §2

[13] = system: MGC-803 cells; assay: Cell colony formation assay; format: cell-based, human
Experimental: To check the effect of compound 13e on cell proliferation, cell colony formatting assay was performed. […] Beside the activity on cell apoptosis, compound 13e inhibited cell proliferation of MGC-803 cells as well.
(§3) In this work, some other assays including colony formation assay and cell apoptosis assay were referred to our previous work.
(§4) Figure 5 Compound 13e inhibited cell proliferation. (A,B) The colony formation of MGC-803 cells after the treatment with indicated concentrations of compound 13e for 7 days; (C) Cell proliferation related proteins in MGC-803 cells of compound 13e after the treatment with indicated concentrations of 13e for 24 h.

[14] = system: CyclinB1 and CDK1 in MGC-803 cells; assay: Western blotting of cell proliferation related proteins; format: cell-based, human; conditions: MGC-803, western blot, 24 h
Experimental: (§5) Gastric cancer cells were seeded in dishes and treated with 13e or DMSO. After 48 h, MGC-803 cells were collected and then lysed. The denatured lysates of each groups were electrophoretic separated in SDS-PAGE. Proteins were then transferred onto PVDF membranes from gels. After blocking for 2 h, membranes were incubated with primary antibodies conjugation. Then, the membranes were washed and incubated with 2nd antibodies. At last, specific proteins were detected.
as §4

[15] = system: MGC-803 cells; assay: DAPI fluorescent staining of cell nucleus; format: cell-based, human; conditions: MGC-803, high dose treated group, 48 h
Experimental: Cells were seeded in 6-welled plate, then treated with different concentration of compounds for 48 h. The treated and untreated cells were washed with PBS buffer. Then fixed with 4% paraformaldehyde for 10 min in dark. After washed with PBS buffer, cells were stained by 2 μg/mL DAPI solution containing 0.1% triton X-100 for 30 min. Discard the solution and wash the cells with PBS buffer. Capture the images with a fluorescence microscope.
(§6) Figure 6 Compound 13e induced cell apoptosis. (A) Cell nucleus (upper panel) and morphology (lower panel) of compound 13e treated (48 h) or untreated MGC-803 cells; (B) Compound 13e induced apoptosis of MGC-803 cells. After incubated with compound 13e for 48 h, MGC-803 cells were detected by Annexin V/PI with flow cytometric analysis. The Q3 represents live cells, Q4 represents early/primary apoptotic cells, Q2 represents late/secondary apoptotic cells and Q1 represents cells necrosis. (C) The percentage of apoptosis (early and late apoptosis) cells increased dependently with various concentrations of compound 13e. Date are represented as mean ± SD of three independent experiments.

[16] = system: MGC-803 cells; assay: Annexin V/PI flow cytometry apoptosis assay; format: cell-based, human; conditions: MGC-803, 6 μmol/L, 48 h; control less than 10%
Experimental: as §3, §6

[17] = system: apoptosis related proteins in MGC-803 cells; assay: Western blotting of apoptosis related proteins; format: cell-based, human; conditions: MGC-803, 1.5-6 μmol/L, 48 h
Experimental: as §5
Figure 7 Compound 13e regulated apoptosis related proteins. (A,B) The expression of cell apoptosis related proteins were detected by western blotting. MGC-803 cells were incubated with various concentrations compound 13e (0 μmol/L, 1.5 μmol/L, 3 μmol/L, 6 μmol/L) for 48 h. Date are represented as mean ± SD of three independent experiments.

[18] = system: MGC-803 cells; assay: Growth curves of MGC-803 cells; format: cell-based, human; conditions: MGC-803, after treatment for 72 h
Experimental: Since gastric cancer cell line MGC-803 cells was more sensitive to compound 13e, MGC-803 cells were selected to do further study. The cell viabilities of MGC-803 cells after the treatment with different concentrations of compound 13e for 48 h were presented in Figure 4A, as the concentration rise, cell viability decreased obviously. […] The trends of cell growth were curved with results of cell viabilities after compound 13e treatment. […] We also tested the inhibition activity of compound 13e on normal gastric epithelial cell GES-1.
Figure 4 (A–C) MGC-803 cells inhibition activity of compound 13e […]. (A) Cell viabilities of MGC-803 cells, MGC-803 cells were treated with indicated concentrations of compound 13e for 48 h; (B) Growth curves of MGC-803 cells after the treatment with indicated concentrations of compound 13e for different hours. (C) Cell viabilities of MGC-803 cells and GES-1 cells, cells were treated with indicated concentrations of compound 13e for 48 h. The results shown were representative of three independent experiments.

[19] = Homo sapiens, HCT-116, exposure for 48 h
[20] = Homo sapiens, MCF7, exposure for 48 h

COc1ccc(/C=C/C(=O)c2cc(OC)c(OC)c(OC)c2)cc1 [Compound 2, (E)-3-(4-methoxyphenyl)-1-(3,4,5-trimethoxyphenyl)prop-2-en-1-one]
IC50 [1]: 4.5 µM

COc1ccc(/C=C/C(=O)c2ccc(OC)c3c2OC(C)(C)C=C3)cc1 [Compound 3, millepachine]
IC50 [2]: 1.51 µM

O=C(/C=C/c1cn(S(=O)(=O)c2ccc(Cl)cc2Cl)c2ccccc12)c1ccncc1 [Compound 4]
IC50 [3]: 12.2 µM
IC50 [4]: 0.13 µM

O=c1[nH]cc(F)c(=O)[nH]1 [Compound 5-Fu, reference compound]
IC50 ([5]; exposure for 48 h): 14.4 ± 1.73 µM
IC50 ([6]; exposure for 48 h): 12.1 ± 1.28 µM
IC50 [7]: 8.22 µM

CNC(=O)c1cc(Oc2ccc(C(=O)/C=C/c3cc(OC)c(OC)c(OC)c3)cc2)ccn1 [Compound 5]
IC50 [8]: 3.15 µM
IC50 [9]: 0.72 µM
IC50 [3]: 3.88 µM

COc1cc(/C=C/C(=O)c2ccc(NC(=O)CSC(=S)N3CCN(CCO)CC3)cc2)cc(OC)c1OC [Compound 6]
IC50 [10]: 1.74 µM

COc1cc(/C=C/C(=O)c2ccc(OCCCn3cc(CSc4nccs4)nn3)cc2)cc(OC)c1OC [Compound 7]
IC50 [10]: 4.26 µM

COc1ccc(N(C)c2cc(=O)oc3ccccc23)cc1NC(=O)CCCCl [Compound 9]
IC50 [11]: 0.0035 µM

COc1cc(/C=C/C(=O)c2ccc(NC(=O)CCl)cc2)cc(OC)c1OC [Compound 13c]
IC50 ([12]; Homo sapiens, MGC-803, 48 h): 1.88 ± 0.22 µM
IC50 [5, 19]: 2.83 ± 0.03 µM
IC50 [6, 20]: 3.12 ± 0.01 µM
melting point: 182 to 183 °C

COc1cc(/C=C/C(=O)c2ccc(NC(=O)CCCl)cc2)cc(OC)c1OC [Compound 13d]
IC50 ([12]; Homo sapiens, MGC-803, 48 h): 1.64 ± 0.18 µM
IC50 [5, 19]: 2.4 ± 0.26 µM
IC50 [6, 20]: 2.12 ± 0.13 µM
melting point: 183 to 184 °C

COc1cc(/C=C/C(=O)c2ccc(NC(=O)CCCCl)cc2)cc(OC)c1OC [Compound 13e]
IC50 ([12]; Homo sapiens, MGC-803, 48 h): 1.54 µM
IC50 [12]: 1.52 ± 0.12 µM
Concentration at which colonies were evidently reduced ([13]; MGC-803, 7 days treatment, compared to control): greater than 0.5 μmol/L
Colony formation of MGC-803 cells ([13]; result in words): inhibited the colony formation
IC50 [5, 19]: 1.83 ± 0.2 µM
CDK1 protein level [14]: down-regulated
CyclinB1 protein level [14]: down-regulated
Cell nucleus morphology (DAPI) [15]: concentrated and fragmented
Rate of apoptosis cells (early and late) [16]: 86.7%
Bcl-2 expression [17]: down regulated
Caspase3/7 [17]: cleaved (activated)
Caspase8 [17]: cleaved (activated)
Caspase12 [17]: cleaved (activated)
DR5 expression [17]: up regulated
Noxa expression [17]: up regulated
PARP [17]: cleaved
XIAP expression [17]: decreased
c-IAP1 expression [17]: decreased
t-Bid [17]: increase
IC50 [6, 20]: 2.54 ± 0.18 µM
melting point: 170 to 171 °C
Fold Selectivity A [7]: 5.4 fold
IC50 ([7]; Homo sapiens, GES1): 8.22 µM
Concentration range of selective inhibitory effect on cancer cells ([7]; MGC-803 versus GES-1, 48 h): below 2 μmol/L
Inhibition activity on GES-1 compared with MGC-803 ([7]; cell viability, 48 h, Figure 4C): lower inhibition activity on GES-1 than gastric cancer cell MGC-803
Dose from which cell growth is inhibited [18]: ≥ 0.75 µmol/L

COc1cc(/C=C/C(=O)c2ccc(NC(=O)CCCCCl)cc2)cc(OC)c1OC [Compound 13f]
IC50 ([12]; Homo sapiens, MGC-803, 48 h): 3.01 ± 0.11 µM
IC50 [5, 19]: 4.28 ± 0.32 µM
IC50 [6, 20]: 4.45 ± 0.11 µM
melting point: 125 to 126 °C

C=CC(=O)Nc1ccc(/C=C/C(=O)c2cc(OC)c(OC)c(OC)c2)cc1 [Compound 13g, (E)-N-(4-(3-oxo-3-(3,4,5-trimethoxyphenyl)prop-1-en-1-yl)phenyl) acrylamide]
IC50 ([12]; Homo sapiens, MGC-803, 48 h): 1.83 ± 0.2 µM
IC50 [12]: 1.52 µM
IC50 [5, 19]: 1.12 ± 0.11 µM
IC50 [6, 20]: 2.06 ± 0.21 µM
melting point: 178 to 179 °C
Fold Selectivity A [7]: 5.4 fold
IC50 ([7]; Homo sapiens, GES1): 8.22 µM

O=C(CCCCl)Nc1ccc(C(=O)/C=C/c2ccccc2)cc1 [Compound 13h]
IC50 ([12]; Homo sapiens, MGC-803, 48 h): 22.1 ± 0.75 µM
IC50 [5, 19]: 13.1 ± 0.51 µM
IC50 [6, 20]: 22.2 ± 0.83 µM
melting point: 161 to 162 °C

O=C(CCCCl)Nc1ccc(C(=O)/C=C/c2ccc(F)cc2)cc1 [Compound 13j]
IC50 ([12]; Homo sapiens, MGC-803, 48 h): > 40 µM
IC50 [5, 19]: > 40 µM
IC50 [6, 20]: > 40 µM
melting point: 167 to 168 °C

COc1ccc(/C=C/C(=O)c2ccc(NC(=O)CCCCl)cc2)cc1OC [Compound 13l]
IC50 ([12]; Homo sapiens, MGC-803, 48 h): 16.3 ± 0.65 µM
IC50 [5, 19]: > 40 µM
IC50 [6, 20]: 10.1 ± 0.73 µM
melting point: 166 to 167 °C

(E)-4-chloro-N-(4-(3-oxo-3-(p-tolyl)prop-1-en-1-yl)phenyl)butanamide [Compound 13i]
IC50 [12]: 16.8 ± 0.82 µM
IC50 ([5]; exposure for 48 h): 13.1 ± 0.61 µM
IC50 ([6]; exposure for 48 h): 17.6 ± 0.51 µM

(E)-N-(4-(3-(4-bromophenyl)-3-oxoprop-1-en-1-yl) phenyl)-4-chlorobutanamide [Compound 13k]
IC50 [12]: > 40 µM
IC50 ([5]; exposure for 48 h): > 40 µM
IC50 ([6]; exposure for 48 h): > 40 µM

(E)-N-(4-(3-oxo-3-(3,4,5-trimethoxyphenyl) prop-1-en-1-yl) phenyl) acetamide [Compound 13a]
IC50 [12]: 3.81 ± 0.22 µM
IC50 ([6]; exposure for 48 h): 3.56 ± 0.17 µM

(E)-N-(4-(3-oxo-3-(3,4,5-trimethoxyphenyl) prop-1-en-1-yl)phenyl) pentanamide [Compound 13b]
IC50 [12]: 4.08 ± 0.24 µM
IC50 ([5]; exposure for 48 h): 6.72 ± 0.28 µM
IC50 ([6]; exposure for 48 h): 3.11 ± 0.34 µM
